Experimental data reported in patent publication US5254726A, “No-carrier-added (NCA) aryl (18E) fluorides via the nucleophilic aromatic substitution of electron rich aromatic rings” (priority 1991, dated 1993).
“Also recorded” adds a separate entry of the source. Like-named read-outs stand apart in the source and are kept apart here.

Assays:
[1] = tested on: adrenergic nerve terminals; settings: cited from earlier work; for neuronal uptake and storage: literature
[2] = design: species or system baboon (Papio anubis); settings: in vivo
Procedure: (§1) Adult female baboons were anesthetized and prepared for PET studies as described by Dewey et al., Synapse, 5, 213 (1990) the description of which is incorporated by reference herein. A solution of racemic 6-[^18 F]FNE (5 mCi, 0.4 μg) in 3 mL of saline was injected intravenously. Scanning was performed for 140 minutes in a Computer Technology Imaging (CTI) positron tomograph (model 931-08/12; 15 slice, 6.5-mm slice thickness, full width at half maximum (FWHM) with an in-plane resolution of 6.0×6.0 mm (FWHM). The following scanning protocol was used: ten 30-s scans, followed by five 60-s scans, followed by ten 5-minute scans, followed by eight 10-minute scans. In every case, an initial transmission scan was performed 2.0 minutes prior to radiotracer injection in order to determine the proper position of the animal in the gantry. Upon completion of this scan, adjustments in position were made as necessary and a regular transmission scan (10 minutes) was performed in order to correct for the attenuation of the annihilation photons. The tomograph was cross calibrated with the well-counter used for the measurement of radioactivity in the plasma samples. […] Vital signs including heart and respiratory rate were monitored and recorded throughout the length of the study. […]

[3] = Vital signs including heart and respiratory rate during PET study; type: in vivo, baboon (Papio anubis); settings: at any time during the study; 5 mCi, 0.4 μg i.v.
Procedure: as §1

[4] = tested on: baboon mycocardium (left ventricular wall and septum); experiment: PET study of baboon heart after injection of racemic 6-[^18 F]FNE; type: in vivo, baboon (Papio anubis)
Procedure: (§2) FIG. 8 is a time-activity curve for F-18 in the baboon mycocardium (left ventricular wall and septum) after injection of 5 mCi of racemic 6-[^18 F]FNE. FIG. 9 is a graph showing plasma clearance of F-18 in the baboon after injection of racemic 6-[^18 F]FNE. […] Radioactivity remained at 0.032% of the peak activity by 120 minutes post injection. The ratio of myocardium to plasma was 7 at 5 minutes and 11.2 at 135 minutes. The experiment was carried out as follows:
Adult female baboons were anesthetized and prepared for PET studies as described by Dewey et al., Synapse, 5, 213 (1990) the description of which is incorporated by reference herein. A solution of racemic 6-[^18 F]FNE (5 mCi, 0.4 μg) in 3 mL of saline was injected intravenously. Scanning was performed for 140 minutes in a Computer Technology Imaging (CTI) positron tomograph (model 931-08/12; 15 slice, 6.5-mm slice thickness, full width at half maximum (FWHM) with an in-plane resolution of 6.0×6.0 mm (FWHM). The following scanning protocol was used: ten 30-s scans, followed by five 60-s scans, followed by ten 5-minute scans, followed by eight 10-minute scans. In every case, an initial transmission scan was performed 2.0 minutes prior to radiotracer injection in order to determine the proper position of the animal in the gantry. Upon completion of this scan, adjustments in position were made as necessary and a regular transmission scan (10 minutes) was performed in order to correct for the attenuation of the annihilation photons. The tomograph was cross calibrated with the well-counter used for the measurement of radioactivity in the plasma samples. A rectilinear scan was performed by placing the baboon's head in the gantry and moving through the rostral caudal extent of the animal (10-mm increments) to include the bladder at the most caudal level. Scanning was performed for 1.5 minutes at each position. Vital signs including heart and respiratory rate were monitored and recorded throughout the length of the study.
The time-activity curve for F-18 after the injection of 6-[^18 F]FNE was generated from a region of interest over the left ventricular wall and the septum. Immediately following completion of the dynamic acquisition, a rectilinear scan (qualitative) was performed beginning at the head and continuing throughout the rostral-caudal extent of the trunk.

[5] = Plasma/blood clearance of F-18 in the baboon; type: in vivo, baboon (Papio anubis); settings: racemic, 5 mCi i.v.
Procedure: as §2
Adult female baboons were anesthetized and prepared for PET studies as described by Dewey et al., Synapse, 5, 213 (1990) the description of which is incorporated by reference herein. A solution of racemic 6-[^18 F]FNE (5 mCi, 0.4 μg) in 3 mL of saline was injected intravenously. […] The tomograph was cross calibrated with the well-counter used for the measurement of radioactivity in the plasma samples. […] Vital signs including heart and respiratory rate were monitored and recorded throughout the length of the study.

dopamine β-hydroxylase [6] = type: biochemical; settings: pH 5.7, 30° C.; for product formed by dopamine β-hydroxylase: substrate incubation, chiral HPLC
Procedure: Two enzyme incubations, with dopamine and 6-fluorodopamine, respectively, were performed simultaneously, as follows:
12(a) Dopamine Hydroxylation. A mixture of 0.5 mg of dopamine, potassium phosphate buffer (0.3 mL, pH 5.7), 0.5M ascorbic acid (0.02 mL, pH 5.7), 1M sodium formate (0.05 mL), and dopamine β-hydroxylase solution (0.05 mL) was stirred in a closed vial at 30° C. The cap was removed and the vial was shaken periodically. An aliquot (ca. 1 μL) was withdrawn and subjected to chiral HPLC analysis as the reaction progressed. HPLC conditions were as follows: Crownpak CR (+) columns, 15×0.46 cm, 254 nm, 0.02M HClO4, 0.7 mL/min.
12(b) 6-Fluorodopamine Hydroxylation. The same procedure was used as described in 12(a), except 0.4 mg of 6-fluorodopamine, kindly provided by Dr. Kenneth Kirk at the National Institutes of Health, was used as a substrate.
Radiat. Isot., 41, 463 (1990) the disclosure of which is incorporated by reference herein, for [^11 C]octopamine enantiomers when a Crownpak CR(+) HPLC column was used.

[7] = literature; cited from earlier work
dog heart = settings: Wieland et al. 1990, Rosenspire et al. 1989; cited from earlier work
human heart = settings: Schwaiger et al. 1990, Kopin 1990; cited from earlier work
[8] = tracers administered in vivo; Goldstein et al. 1990, Mislankar et al. 1988; cited from earlier work
dopamine β-hydroxylase [9] = settings: Levin et al. 1960; Goldstein et al. 1962; cited from earlier work
vesicular transporter = settings: Matthaei et al. 1988; cited from earlier work

NCC(O)c1cc(O)c(O)cc1F (racemic) [6-fluoronorepinephrine]
neuronal uptake and storage [1]: share the same presynaptic mechanisms for the uptake, storage, and synthesis as the parent molecules | neuronal uptake and storage ([1]; listed as racemic 6-fluoronorepinephrine): taken up and stored by adrenergic nerve terminals

NCC(O)c1cc(O)c(O)cc1[18F] (racemic) [racemic 6-[^18 F]FNE, 6-[^18 F]fluoronorepinephrine]
distribution of radioactivity [2]: Radioactivity was distributed in the parotid glands, the heart, liver, and bladder | change in vital signs [3]: no change in vital signs | peak concentration of F-18 in myocardium ([4]; 10 minutes post injection, 5 mCi racemic, i.v.): 0.042 % of the injected does/cc | ratio of myocardium to plasma ([4]; at 5 minutes, 5 mCi i.v.): 7 | ratio of myocardium to plasma ([4]; at 135 minutes, 5 mCi i.v.): 11.2 | uptake and retention/clearance of F-18 in the baboon heart ([4]; racemic, 5 mCi i.v.): high uptake and retention; also recorded: high uptake and a slow clearance | clearance from blood [5]: rapid clearance from blood

NCCc1cc(O)c(O)cc1F [6-fluorodopamine]
neuronal uptake and storage [1]: share the same presynaptic mechanisms for the uptake, storage, and synthesis as the parent molecules | product formed by dopamine β-hydroxylase (dopamine β-hydroxylase [6]): a new HPLC peak at 18 minutes appeared

C[C@H](N[11CH3])[C@H](O)c1cccc(O)c1 [[^11 C]m-hydroxyephedrine]
neuronal uptake and storage [1]: share the same uptake and storage mechanisms as norepinephrine | metabolic stability [7]: metabolically stable | images of the neuronal distribution (dog heart): excellent images | images of the neuronal distribution (human heart): excellent images

NCCc1cc(O)c(O)cc1[18F] [[^18 F]dopamine, 6-[^18 F]fluorodopamine]
vasoactivity / hemodynamic effects [8]: hemodynamic effects

C[C@H](N)[C@H](O)c1cc(O)ccc1[18F] [[^18 F]fluorometaraminol]
vasoactivity / hemodynamic effects [8]: hemodynamic effects | neuronal uptake and storage [1]: share the same uptake and storage mechanisms as norepinephrine | metabolic stability [7]: metabolically stable | images of the neuronal distribution (dog heart): excellent images | images of the neuronal distribution (human heart): excellent images

NCCc1ccc(O)c(O)c1 [dopamine]
enantiospecific conversion by dopamine β-hydroxylase (dopamine β-hydroxylase [9]): enantiospecifically convert dopamine to (-)-norepinephrine | time to appearance of (-)-NE peak (dopamine β-hydroxylase [6]; dopamine as substrate): less than 1 hour | product formed by dopamine β-hydroxylase (dopamine β-hydroxylase [6]): (+)-NE was not observed

NC[C@H](O)c1ccc(O)c(O)c1 [norepinephrine]
stereoselectivity of neuronal uptake ([1]; Matthaei et al. 1988): not stereoselective | stereoselectivity for vesicular transporter (vesicular transporter): only the levorotatory enantiomer serves as a substrate for the vesicular transporter
